Like-named read-outs stand apart in the source and are kept apart here.
Assays:
[1] = biological target: Isoleucyl-tRNA synthetase (IleRS) (Escherichia coli (strain K12), UniProt P00956); test: Isoleucyl-tRNA synthetase enzyme inhibition (AMP-Glo; single point % inhibition at 100 μM and IC50); format: biochemical
Excerpt: (§1) Study 1—Enzyme Inhibition
The aminoacylation reaction catalyzed by aminoacyl-tRNA synthetases (aaRS) takes place in two steps. In the first step, aaRS activates its cognate amino acid with ATP; and in the second step the activated amino acid is loaded to its corresponding tRNA. This reaction can be summarized as follows: aaRS+aa+ATP=aaRS-aa-AMP+PPi aaRS-aa-AMP+tRNA=aa-tRNA+AMP+aaRS […]
(§2) wherein: aaRS, aminoacyl-tRNA synthetase; aa, amino acid; aaRS-aa-AMP, enzyme-bound to aminoacyl-adenylate; AMP, adenosine monophosphate; aa-tRNA, aminoacyl-tRNA, PPi, inorganic pyrophosphate.
Isoleucyl-tRNA Synthetase a. Single Point Percentage Inhibition
(§3) The activity of the pathogenic aaRSs was monitored by measuring AMP production using the commercial kit AMP-Glo (Promega, Madison, USA).
Ligand stock solutions were prepared in 100% DMSO at 10 mM concentration. An assay buffer consisting of 100 mM Tris HCl pH 7.6, 40 mM MgCl, 20 mM KCl and 150 mM NaCl was prepared in dH2O. An enzyme solution containing 51.77 μM IleRS was prepared in assay buffer to provide 30 nM final assay concentration and 75 nM reservoir concentration for a 1:2.5 dilution in the assay. A substrate solution was also prepared in assay buffer with 50 mM L-isoleucine, 10 mM ATP and 100 mg/mL tRNA. A final assay concentration of 500 μM L-isoleucine, 5 μM ATP and 1 mg/mL tRNA and reservoir concentration of 833.33 μM L-isoleucine, 8.33 μM ATP and 1.67 mg/mL tRNA was used for a 1:1.66 dilution in assay.
(§4) Enzyme percentage inhibition values were recorded in triplicate at a single point concentration of 100 μM.
(§5) Using the same enzymatic assay in a 384-well plate format, ten point concentration response curves were generated for each compound using a top concentration of 100 μM. The known inhibitor, IleAMS was used as a positive control for the IleRS assay. 100% DMSO was used as a negative control. The IC50 was calculated based on non-linear regression analysis.

[2] = biological target: Valyl-tRNA synthetase (ValRS) (Escherichia coli (strain K12), UniProt P07118); test: Valyl-tRNA synthetase enzyme inhibition (AMP-Glo; single point % inhibition at 100 μM and IC50); format: biochemical
Valyl-tRNA synthetase (ValRS), sequence (P07118 whole entry): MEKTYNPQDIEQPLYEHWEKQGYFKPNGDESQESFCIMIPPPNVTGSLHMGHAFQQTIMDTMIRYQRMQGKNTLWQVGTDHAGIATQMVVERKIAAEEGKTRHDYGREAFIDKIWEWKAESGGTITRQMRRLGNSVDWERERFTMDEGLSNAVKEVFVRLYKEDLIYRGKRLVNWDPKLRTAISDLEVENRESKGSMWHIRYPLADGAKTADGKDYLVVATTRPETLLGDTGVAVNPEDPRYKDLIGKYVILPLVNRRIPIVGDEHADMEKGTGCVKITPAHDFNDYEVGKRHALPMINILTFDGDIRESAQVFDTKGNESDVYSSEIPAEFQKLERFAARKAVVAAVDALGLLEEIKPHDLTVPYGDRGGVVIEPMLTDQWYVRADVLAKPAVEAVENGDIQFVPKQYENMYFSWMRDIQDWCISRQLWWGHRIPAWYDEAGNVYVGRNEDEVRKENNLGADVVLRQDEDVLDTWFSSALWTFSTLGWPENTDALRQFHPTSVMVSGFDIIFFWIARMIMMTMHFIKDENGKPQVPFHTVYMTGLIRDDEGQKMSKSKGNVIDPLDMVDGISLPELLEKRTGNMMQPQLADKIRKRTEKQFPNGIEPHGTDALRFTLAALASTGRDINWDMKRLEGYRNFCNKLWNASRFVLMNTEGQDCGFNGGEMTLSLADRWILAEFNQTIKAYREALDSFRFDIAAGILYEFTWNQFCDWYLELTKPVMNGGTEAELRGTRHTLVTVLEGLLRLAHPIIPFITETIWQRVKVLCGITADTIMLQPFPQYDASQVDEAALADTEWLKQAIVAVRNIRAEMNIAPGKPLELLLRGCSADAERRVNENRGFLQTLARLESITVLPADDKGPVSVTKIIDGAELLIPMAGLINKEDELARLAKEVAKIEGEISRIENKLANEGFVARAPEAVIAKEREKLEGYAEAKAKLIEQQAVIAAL
Excerpt: as §1
The aminoacylation reaction catalyzed by aminoacyl-tRNA synthetases (aaRS) takes place in two steps. In the first step, aaRS activates its cognate amino acid with ATP; and in the second step the activated amino acid is loaded to its corresponding tRNA. This reaction can be summarized as follows: aaRS+aa+ATP=aaRS-aa-AMP+PPi aaRS-aa-AMP+tRNA=aa-tRNA+AMP+aaRS
as §2
a. Single Point Percentage Inhibition
as §3
Ligand stock solutions were prepared in 100% DMSO at 10 mM concentration. An assay buffer consisting of 100 mM Tris HCl pH 7.6, 40 mM MgCl, 20 mM KCl and 150 mM NaCl was prepared in dH2O. An enzyme solution containing 42.33 μM ValRS was prepared in assay buffer to provide 30 nM final assay concentration and 75 nM reservoir concentration for a 1:2.5 dilution in the assay. A substrate solution was also prepared in assay buffer with 50 mM L-valine, 10 mM ATP and 100 mg/mL tRNA. A final assay concentration of 500 μM L-valine, 2.5 μM ATP and 0.5 mg/mL tRNA and reservoir concentration of 833.33 μM L-valine, […] and 0.83 mg/mL tRNA was used for a 1:1.66 dilution in assay.
as §4
as §5, with “ValAMS” for “IleAMS”, “ValRS” for “IleRS”

[3] = biological target: Leucyl-tRNA synthetase (LeuRS) (Escherichia coli (strain K12), UniProt P07813); test: Leucyl-tRNA synthetase enzyme inhibition (AMP-Glo; single point % inhibition at 100 μM and IC50); format: biochemical
Leucyl-tRNA synthetase (LeuRS), sequence (P07813 whole entry, looked up): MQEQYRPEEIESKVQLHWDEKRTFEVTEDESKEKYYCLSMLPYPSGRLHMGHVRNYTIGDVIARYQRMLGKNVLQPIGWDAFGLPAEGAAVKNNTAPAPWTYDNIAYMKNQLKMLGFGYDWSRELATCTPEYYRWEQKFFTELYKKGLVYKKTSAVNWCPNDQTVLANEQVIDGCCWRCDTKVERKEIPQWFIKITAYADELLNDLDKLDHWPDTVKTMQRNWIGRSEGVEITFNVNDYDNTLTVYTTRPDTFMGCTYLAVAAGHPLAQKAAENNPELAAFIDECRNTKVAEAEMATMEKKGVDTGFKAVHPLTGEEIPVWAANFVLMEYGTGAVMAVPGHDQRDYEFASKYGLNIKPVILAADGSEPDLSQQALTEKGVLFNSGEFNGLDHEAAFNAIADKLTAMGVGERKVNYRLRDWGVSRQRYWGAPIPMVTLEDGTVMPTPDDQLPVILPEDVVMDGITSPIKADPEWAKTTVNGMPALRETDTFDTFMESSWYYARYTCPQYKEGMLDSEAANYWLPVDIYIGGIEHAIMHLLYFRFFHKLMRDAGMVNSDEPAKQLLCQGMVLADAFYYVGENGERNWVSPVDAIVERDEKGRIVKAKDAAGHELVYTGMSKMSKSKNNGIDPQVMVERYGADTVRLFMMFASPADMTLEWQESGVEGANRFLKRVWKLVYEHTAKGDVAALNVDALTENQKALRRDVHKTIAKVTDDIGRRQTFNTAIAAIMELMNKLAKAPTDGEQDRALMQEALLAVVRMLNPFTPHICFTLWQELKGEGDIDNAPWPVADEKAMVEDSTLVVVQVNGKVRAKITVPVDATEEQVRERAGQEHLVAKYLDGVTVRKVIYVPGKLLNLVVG

E. coli UT189 = test: Efficacy in a murine model of urinary tract infection (microbial burden in urine, bladder, kidney); format: in vivo; details: Experiment 2, mouse UTI
Description: All animal studies were performed under UK Home Office License PA67E0BAA (protocol E9 for UTI model) with local ethical committee clearance. All studies were performed by technicians who have completed parts A, B and C of the UK Home Office Personal License course and hold current personal licenses. All experiments were performed in dedicated Biohazard 2 facilities (the site holds a Certificate of Designation). Female mice used in these studies were supplied by Janvier laboratories and were specific pathogen free. The strain of mouse used was C3H/HeNRj, which is a well characterized inbred strain. Mice were 16-20 g on receipt and were allowed to acclimatize for at least 7 days prior to any intervention. Five days prior to infection mice were transferred onto drinking water containing 5% glucose. […] It was stored at 4° C. between doses. Test articles were prepared by solubilising in water for injection, taking the salt correction factor into account. […] Mice (n=6 per group) were infected by directly administering 0.05 mL of inoculum via the urethra into the bladder under parenteral anaesthesia. Drinking water was withheld two hours pre-infection and bladders were emptied prior to infection. Once infected, infection catheters were left in the urinary tract for 10 minutes to reduce the risk of the organism flowing back out. The mice were monitored at a frequency appropriate for their clinical condition. Mouse weights were recorded at least once daily both to ensure animals remained within ethical limits and to monitor efficacy of treatment. Twenty-four hours post infection, urine was collected from pre-treatment animals and used to assess the infection level. Urine samples were quantitatively cultured onto MacConkey's agar plates and incubated at 37° C. for 24 hours before colonies were counted. In addition, five mice were euthanised by pentobarbitone overdose to provide a 24 hour pre-treatment control group. Forty-eight hours post-infection, urine was collected from all mice. Seventy-two hours post infection, the clinical condition and body weight of all remaining animals was assessed and urine samples were collected. Animals were then euthanised by pentobarbitone overdose and kidneys and bladders were removed and weighed. Tissue samples were homogenized using a Precellys 24 dual bead beater in 2 mL ice cold sterile phosphate buffered saline. Homogenates and urine samples were quantitatively cultured onto MacConkey's agar plates and incubated at 37° C. for 24 hours before colonies were counted. Data Analysis The data from the culture burdens were analysed using appropriate non-parametric statistical models (Kruskal-Wallis using Conover-Inman to make all pairwise comparisons between groups) with StatsDirect software, and compared to pretreatment and vehicle controls.

[4] = test system: bacteria (ATCC reference strains); test: Antibacterial activity, MIC by broth micro-dilution (CLSI)
E. coli ATCC 25922 = test: Efficacy in a murine model of disseminated infection (microbial burden in blood, kidney, spleen); format: in vivo; details: mouse; 30 mg/kg sc once at 1 hr post-infection; harvest 5 hr
[5] = 10 mg/kg/dose iv at 24, 36, 48 and 60 hr

Isoleucyl-tRNA synthetase (IleRS), sequence (P00956 whole entry, looked up): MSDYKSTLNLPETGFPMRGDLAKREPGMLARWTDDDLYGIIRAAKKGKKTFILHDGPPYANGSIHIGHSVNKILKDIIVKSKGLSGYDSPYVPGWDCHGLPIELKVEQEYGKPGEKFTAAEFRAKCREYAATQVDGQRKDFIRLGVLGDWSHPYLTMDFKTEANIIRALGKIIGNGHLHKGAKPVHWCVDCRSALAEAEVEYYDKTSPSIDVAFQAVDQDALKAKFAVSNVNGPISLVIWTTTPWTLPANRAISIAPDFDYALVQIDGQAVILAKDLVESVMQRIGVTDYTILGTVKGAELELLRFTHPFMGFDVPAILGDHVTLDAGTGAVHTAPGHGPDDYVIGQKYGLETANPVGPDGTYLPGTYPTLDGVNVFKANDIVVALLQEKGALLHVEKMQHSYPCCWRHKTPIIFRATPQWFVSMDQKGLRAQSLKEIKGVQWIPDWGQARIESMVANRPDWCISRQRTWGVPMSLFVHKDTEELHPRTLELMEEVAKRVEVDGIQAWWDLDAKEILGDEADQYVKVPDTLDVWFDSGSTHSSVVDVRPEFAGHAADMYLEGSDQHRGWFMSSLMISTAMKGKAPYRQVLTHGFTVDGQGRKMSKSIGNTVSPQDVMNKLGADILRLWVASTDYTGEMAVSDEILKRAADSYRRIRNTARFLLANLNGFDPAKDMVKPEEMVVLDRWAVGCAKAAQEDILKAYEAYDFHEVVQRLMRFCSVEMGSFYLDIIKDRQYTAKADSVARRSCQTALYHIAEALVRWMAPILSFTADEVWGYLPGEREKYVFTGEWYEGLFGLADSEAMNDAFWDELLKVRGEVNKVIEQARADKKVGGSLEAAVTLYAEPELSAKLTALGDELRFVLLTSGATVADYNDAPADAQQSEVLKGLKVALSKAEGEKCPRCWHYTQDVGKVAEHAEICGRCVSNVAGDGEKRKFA

Structure (SMILES): CC(C)[C@H](N)C(=O)N=S(N)(=O)c1cc2sccc2s1 (stereo partly drawn) [ANASIA-118]
- IC50 [1]: 52.9 µM
- IC50 [2]: 38.6 µM

Structure (SMILES): CC(C)C[C@H](N)C(=O)N=[S@](N)(=O)c1cc(Cl)cs1.Cl [ANASIA-124-1]
- IC50 [3]: 0.0213 µM
- Reduction in burden from vehicle control, Bladder 72 hr (E. coli UT189; 15 mg/kg/dose sc every 4 hours): 1.24 Log10 cfu/g or mL
- Reduction in burden from vehicle control, Kidney 72 hr (E. coli UT189; 15 mg/kg/dose sc every 4 hours): 1.60 Log10 cfu/g or mL
- Reduction in burden from vehicle control, Urine 48 hr (E. coli UT189; 15 mg/kg/dose sc every 4 hours): 0.71 Log10 cfu/g or mL
- Reduction in burden from vehicle control, Urine 72 hr (E. coli UT189; 15 mg/kg/dose sc every 4 hours): 0.66 Log10 cfu/g or mL
- Reduction in burden from vehicle control, Bladder 72 hr (E. coli UT189; 45 mg/kg/dose sc every 4 hours): 1.38 Log10 cfu/g or mL
- Reduction in burden from vehicle control, Kidney 72 hr (E. coli UT189; 45 mg/kg/dose sc every 4 hours): 2.40 Log10 cfu/g or mL
- Reduction in burden from vehicle control, Urine 48 hr (E. coli UT189; 45 mg/kg/dose sc every 4 hours): 1.85 Log10 cfu/g or mL
- Reduction in burden from vehicle control, Urine 72 hr (E. coli UT189; 45 mg/kg/dose sc every 4 hours): 1.21 Log10 cfu/g or mL
- MIC ([4]; Acinetobacter baumannii, read-out: Antibacterial Activity (MIC), E = A. baumannii B1931): 8 µg/mL
- MIC ([4]; Enterobacter cloacae, read-out: Antibacterial Activity (MIC), B = Enterobacter cloacae B1966): 8 µg/mL
- MIC ([4]; Escherichia coli, ATCC25922, read-out: Antibacterial Activity (MIC), A = E. coli ATCC 25922): 0.25 µg/mL
- MIC ([4]; Escherichia coli, BAA2469, read-out: Antibacterial Activity (MIC), G = E. coli BAA-2469): 1.59 µg/mL
- MIC ([4]; Klebsiella pneumoniae, ATCC700603, read-out: Antibacterial Activity (MIC), C = K. pneumoniae ATCC 700603): 16 µg/mL
- MIC ([4]; Pseudomonas aeruginosa, ATCC27853, read-out: Antibacterial Activity (MIC), D = P. aeruginosa ATCC 27853): 32 µg/mL

Structure (SMILES): O=C(O)c1cn(C2CC2)c2cc(N3CCNCC3)c(F)cc2c1=O [Cinprofloxacin]
- Reduction in burden from vehicle control, Bladder 72 hr (E. coli UT189; [5]): 2.74 Log10 cfu/g or mL
- Reduction in burden from vehicle control, Kidney 72 hr (E. coli UT189; [5]): 4.12 Log10 cfu/g or mL
- Reduction in burden from vehicle control, Urine 48 hr (E. coli UT189; [5]): 5.32 Log10 cfu/g or mL
- Reduction in burden from vehicle control, Urine 72 hr (E. coli UT189; [5]): 4.76 Log10 cfu/g or mL

Structure (SMILES): CN(C)c1cc(NC(=O)CNC(C)(C)C)c(O)c2c1C[C@H]1C[C@H]3[C@H](N(C)C)C(O)=C(C(N)=O)C(=O)[C@@]3(O)C(O)=C1C2=O [Tigecycline, tigecycline, reference compound]
- Reduction in burden from vehicle control, Blood (E. coli ATCC 25922): 5.13 Log10 cfu/g or mL
- Reduction in burden from vehicle control, Kidney (E. coli ATCC 25922): 5.62 Log10 cfu/g or mL
- Reduction in burden from vehicle control, Spleen (E. coli ATCC 25922): 5.15 Log10 cfu/g or mL
